The term IC50 denotes the concentration that gives 50% inhibition.

A value given as a limit tells only on which side of the number the result lay.

Experimental findings from patent publication US11691962B2 (eXIthera Pharmaceuticals, Inc., priority 2018, dated 2023) are described below.

Sequence of Factor XIa (P03951 388-625): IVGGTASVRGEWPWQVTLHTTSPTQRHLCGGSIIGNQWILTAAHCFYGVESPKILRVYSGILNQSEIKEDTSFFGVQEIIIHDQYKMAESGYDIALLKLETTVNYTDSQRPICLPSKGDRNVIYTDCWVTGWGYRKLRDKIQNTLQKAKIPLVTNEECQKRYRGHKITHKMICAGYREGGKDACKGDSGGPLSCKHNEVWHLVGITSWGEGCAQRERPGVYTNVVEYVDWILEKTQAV
Sequence of Factor XIa (P03951 19-387 partner): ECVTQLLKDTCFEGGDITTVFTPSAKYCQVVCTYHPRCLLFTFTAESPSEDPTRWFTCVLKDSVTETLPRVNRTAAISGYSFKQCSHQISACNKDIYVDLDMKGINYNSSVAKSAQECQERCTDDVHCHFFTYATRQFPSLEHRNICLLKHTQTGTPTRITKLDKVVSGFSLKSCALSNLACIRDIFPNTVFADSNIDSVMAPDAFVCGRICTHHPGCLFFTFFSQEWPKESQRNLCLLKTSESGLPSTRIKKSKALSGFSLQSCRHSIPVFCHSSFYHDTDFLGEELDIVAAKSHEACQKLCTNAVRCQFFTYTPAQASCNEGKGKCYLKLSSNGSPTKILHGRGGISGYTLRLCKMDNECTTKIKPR

The assay has as its target Factor XIa (Homo sapiens (Human), UniProt P03951). As to the kind of experiment: Factor XIa enzyme inhibition assay (dose response, fluorogenic AMC substrate). To be noted: read-out: hFXIa IC50. The class given is biochemical. Here is the method: • Assay buffer: 20 mM Hepes, pH 7.4; 150 mM NaCl; 0.02% Tween 20 • Compounds: 10 mM stocks in DMSO • Substrate: 20 mM Glp-Pro-Arg-AMC, 25 mg/2.3 mL H2O (store at +4° C.) [Factor XIa, thrombin, and trypsin] • 20 mM Pro-Phe-Arg-AMC (Bachem I-1295), 25 mg/2.2 mL H2O • or Boc-Leu-Gly-Arg-AMC (Bachem I-1105), 25 mg/2.07 mL H2O • (store at +4° C.) [Factor Xa] • Enzyme: Factor XIa; 0.25 μM in 50% glycerol (20 μg/mL) • Trypsin; 0.2 μM in 50% glycerol (4.8 μg/mL) • Thrombin; 0.2 μM in 50% glycerol (7.34 μg/mL) • Factor Xa; 0.2 μM in 50% glycerol (9.2 μg/mL) • These stocks are aliquoted (˜100 μL/aliquot) and stored at −20° C. Methods: • 1. Dilute the substrate to 100 μM in assay buffer (30 μL/6 mL). The enzyme is diluted to 0.5 nM just prior to use (12 μL/6 mL for Factor XIa; 15 μL/6 mL for all of the rest.) • 2. Pipette 50 μL of substrate into each well of the 96 well (12×8) microtiter plate. (Column 1 is used as the 100% activity control and receives no compound, and Column 12 is the blank and receives no enzyme.) Add an additional 46 μL to column 2. • 3. Pipette 4 μL of each compound into the appropriate well in column 2 of the plate (unknowns assayed in triplicate, standard assayed in duplicate). The final compound concentration will be […] of the stock. • 4. Serially two-fold dilute the compound by mixing the sample in column 2, removing 50 μL to the next well (column 3), mix and remove to column 4, etc. until column 11. After mixing column 11, remove 50 μL and discard. • 5. Pipette 50 μL of buffer into column 12. Initiate the reaction by adding 50 μL of enzyme solution to each well of columns 1-11 as rapidly as possible. • 6. Read the plate in a spectrophotometer (SpectraMax) at 30° C., wherein each well is measured every 60 s for 30 min. For Factor Xa assays, each well is measured every 1 min for a total of 60 min. • 7. For Factor XIa assays, the compounds are assayed, in duplicate, at 3 different starting concentrations, 20, 2, and 0.2 μM; 1:10, 1:100, and 1:1000 dilution of 10 mM stock or at 2, 0.2, and 0.02 μM; 1:100, 1:1000, and 1:10,000 dilution of 10 mM stock. Data for each concentration are combined for graphing and data fitting. • 8. Data can be used both for estimation of IC50 and for estimation of Kon.
Potential inhibitors of Factor XIa were evaluated using the following assay.
PyroGlu-Pro-Arg-7-methylaminocourin (AMC), available from CPC Scientific, Inc., is based on the substrate pyro-Glu-Pro-Arg-pNA (S-2366), available from Diapharma Group, Inc. (Columbus, Ohio), wherein the p-nitroanaline group is replaced with 7-methylaminocoumarin (AMC).
The final concentration of the substrate in the assay was 50 μM, and the final concentration of the enzyme was 0.25 nM. Inhibitors were tested by serial dilution over an appropriate range to yield a dose response curve for determination of the inhibitors' IC50 value. The assay mixture was read every minute for 30 minutes in order to generate progress curves. The plates were read in a Spectramax m5 Multimode Plate Reader (Molecular Devices LLC, Sunnyvale, Calif.). Dose response curves were fit to Equation 1 below in which A is the maximum inhibition, B is the minimum inhibition, C is the IC50, and D is the Hill coefficient. Y=[(A−B)/(1+(X/C)^D)]+B (Equation 1)
Consider `CC[C@@H](NC(=O)N1C(=O)[C@H](Cc2ccnc(N)c2)[C@H]1C(=O)N(C)c1ccn(C)n1)c1cccs1` [Compound 1-53, (2S,3R)-3-((2-aminopyridin-4-yl)methyl)-N2-(1-methyl-1H-pyrazol-3-yl)-N1-((R)-1-(thiophen-2-yl)propyl)-N2-methyl-4-oxoazetidine-1,2-dicarboxamide], for which the IC50 fell in the range of 0.01 to 0.1 µM.
Then `CC[C@@H](NC(=O)N1C(=O)[C@H](Cc2ccnc(N)c2)[C@H]1C(=O)N(C)c1ccn(C)n1)c1ccsc1` [Compound 1-54, (2S,3R)-3-((2-aminopyridin-4-yl)methyl)-N2-(1-methyl-1H-pyrazol-3-yl)-N1-((R)-1-(thiophen-3-yl)propyl)-N2-methyl-4-oxoazetidine-1,2-dicarboxamide], with 0.01 to 0.1 µM; and `CC[C@H](c1cccc(Cl)c1)N(C)C(=O)N1C(=O)[C@H](Cc2ccnc(N)c2)[C@H]1C(=O)N(C)c1ccnn1C` [Compound 1-60, (2S,3R)-3-((2-aminopyridin-4-yl)methyl)-N2-(1-methyl-1H-pyrazol-5-yl)-N1-((R)-1-(3-chlorophenyl)propyl)-N1-methyl-N2-methyl-4-oxoazetidine-1,2-dicarboxamide], with 0.01 to 0.1 µM; and `CC[C@@H](NC(=O)N1C(=O)[C@H](Cc2cc(C)nc(NC)c2)[C@H]1C(=O)N(C)c1ccnn1C)c1ccccc1` [Compound 1-61, (2S,3R)-3-((2-methylamino-6-methylpyridin-4-yl)methyl)-N2-(1-methyl-1H-pyrazol-5-yl)-N1-((R)-1-phenylpropyl)-N2-methyl-4-oxoazetidine-1,2-dicarboxamide], with 0.01 to 0.1 µM.
To `CNC(=O)N1C(=O)[C@H](Cc2ccnc(N)c2)[C@H]1C(=O)N(C)c1ccn(C)n1` [Compound 1-64, (2S,3R)-3-((2-aminopyridin-4-yl)methyl)-N2-(1-methyl-1H-pyrazol-3-yl)-N1-methyl-N2-methyl-4-oxoazetidine-1,2-dicarboxamide] belongs 0.1 to 1 µM; to `CC[C@@H](NC(=O)N1C(=O)[C@H](Cc2cc(C)nc(NC)c2)[C@H]1C(=O)N(C)c1cnn(C)c1)c1ccccc1` [Compound 1-66, (2S,3R)-3-((2-methylamino-6-methylpyridin-4-yl)methyl)-N2-(1-methyl-1H-pyrazol-4-yl)-N1-((R)-1-phenylpropyl)-N2-methyl-4-oxoazetidine-1,2-dicarboxamide], 0.01 to 0.1 µM; to `CCC[C@@H](NC(=O)N1C(=O)[C@H](Cc2ccnc(N)c2)[C@H]1C(=O)N(C)c1ccn(C)n1)C1CCCCC1` [Compound 1-68, (2S,3R)-3-((2-aminopyridin-4-yl)methyl)-N2-(1-methyl-1H-pyrazol-3-yl)-N1-((R)-1-cyclohexylbutyl)-N2-methyl-4-oxoazetidine-1,2-dicarboxamide], 0.01 to 0.1 µM.
For the compound `CCCC[C@@H](NC(=O)N1C(=O)[C@H](Cc2ccnc(N)c2)[C@H]1C(=O)N(C)c1ccn(C)n1)C1CCCCC1` [Compound 1-73, (2S,3R)-3-((2-aminopyridin-4-yl)methyl)-N2-(1-methyl-1H-pyrazol-3-yl)-N1-((R)-1-cyclohexylpentyl)-N2-methyl-4-oxoazetidine-1,2-dicarboxamide], the IC50 is 0.01 to 0.1 µM.
Then `CC[C@@H](NC(=O)N1C(=O)[C@H](Cc2cc(C)nc(N)c2)[C@H]1C(=O)N(C)c1nccn1C)C1CCCCC1` [Compound 1-75, (2S,3R)-3-((2-amino-6-methylpyridin-4-yl)methyl)-N2-(1-methyl-1H-imidazol-2-yl)-N1-((R)-1-cyclohexylpropyl)-N2-methyl-4-oxoazetidine-1,2-dicarboxamide], with 0.01 to 0.1 µM; and `CC[C@@H](NC(=O)N1C(=O)[C@H](Cc2cc(C)nc(N)c2)[C@H]1C(=O)N(C)c1cn(C)cn1)C1CCCCC1` [Compound 1-76, (2S,3R)-3-((2-amino-6-methylpyridin-4-yl)methyl)-N2-(1-methyl-1H-imidazol-4-yl)-N1-((R)-1-cyclohexylpropyl)-N2-methyl-4-oxoazetidine-1,2-dicarboxamide], with 0.01 to 0.1 µM.
Take `CC[C@@H](NC(=O)N1C(=O)[C@H](Cc2ccnc(N)c2)[C@H]1C(=O)N(C)c1c(C)cnn1C)c1ccccc1` [Compound 1-78, (2S,3R)-3-((2-aminopyridin-4-yl)methyl)-N2-(1,4-dimethyl-1H-pyrazol-5-yl)-N1-((R)-1-phenylpropyl)-N2-methyl-4-oxoazetidine-1,2-dicarboxamide]: the IC50 is 0.01 to 0.1 µM.
Consider `CC[C@@H](NC(=O)N1C(=O)[C@H](Cc2cc(C)nc(N)c2)[C@H]1C(=O)N(C)c1nccn1C)c1ccc(C)nc1` [Compound 1-82, (2S,3R)-3-((2-amino-6-methylpyridin-4-yl)methyl)-N2-(1-methyl-1H-imidazol-2-yl)-N1-((R)-1-(6-methylpyridin-3-yl)propyl)-N2-methyl-4-oxoazetidine-1,2-dicarboxamide], for which the IC50 fell in the range of 0.01 to 0.1 µM.
Then `CC(C)[C@@H](NC(=O)N1C(=O)[C@H](Cc2ccnc(N)c2)[C@H]1C(=O)N(C)c1nccn1C)c1ccccc1` [Compound 1-85, (2S,3R)-3-((2-aminopyridin-4-yl)methyl)-N2-(1-methyl-1H-imidazol-2-yl)-N1-((R)-1-phenyl-2-methylpropyl)-N2-methyl-4-oxoazetidine-1,2-dicarboxamide], with 0.01 to 0.1 µM; and `CC[C@@H](NC(=O)N1C(=O)[C@H](Cc2ccnc(N)c2)[C@H]1C(=O)N(C)c1nccn1C)c1cccc(F)c1C` [Compound 1-86, (2S,3R)-3-((2-aminopyridin-4-yl)methyl)-N2-(1-methyl-1H-imidazol-2-yl)-N1-((R)-1-(3-fluoro-2-methylphenyl)propyl)-N2-methyl-4-oxoazetidine-1,2-dicarboxamide], with 0.1 to 1 µM; and `CC[C@H](NC(=O)N1C(=O)[C@H](Cc2ccnc(N)c2)[C@H]1C(=O)N(C)c1ccn(C)n1)c1cccc(Cl)c1` [Compound 1-93, (2S,3R)-3-((2-aminopyridin-4-yl)methyl)-N2-(1-methyl-1H-pyrazol-3-yl)-N1-((S)-1-(3-chlorophenyl)propyl)-N2-methyl-4-oxoazetidine-1,2-dicarboxamide], with 0.01 to 0.1 µM.
`CC[C@@H](NC(=O)N1C(=O)[C@H](Cc2ccnc(N)c2)[C@H]1C(=O)N(C)c1nccn1C)c1ccc(C)nc1C` [Compound 1-95, (2S,3R)-3-((2-aminopyridin-4-yl)methyl)-N2-(1-methyl-1H-imidazol-2-yl)-N1-((R)-1-(2,6-dimethylpyridin-3-yl)propyl)-N2-methyl-4-oxoazetidine-1,2-dicarboxamide]: the IC50 was in the range of 0.01 to 0.1 µM.
As to `CC[C@H](NC(=O)N1C(=O)[C@H](Cc2ccnc(N)c2)[C@H]1C(=O)N(C)c1nccn1C)c1ccc(C)nc1C` [Compound 1-96, (2S,3R)-3-((2-aminopyridin-4-yl)methyl)-N2-(1-methyl-1H-imidazol-2-yl)-N1-((S)-1-(2,6-dimethylpyridin-3-yl)propyl)-N2-methyl-4-oxoazetidine-1,2-dicarboxamide], the IC50 was 0.1 to 1 µM.
To `CC[C@@H](NC(=O)N1C(=O)[C@H](Cc2cc(C)nc(N)c2)[C@H]1C(=O)N(C)c1nccn1C)c1cc(C)ccc1C` [Compound 1-108, (2S,3R)-3-((2-amino-6-methylpyridin-4-yl)methyl)-N2-(1-methyl-1H-imidazol-2-yl)-N1-((R)-1-(2,5-dimethylphenyl)propyl)-N2-methyl-4-oxoazetidine-1,2-dicarboxamide] belongs 0.01 to 0.1 µM; to `CC[C@@H](NC(=O)N1C(=O)[C@H](Cc2ccnc(N)c2)[C@H]1C(=O)N(C)c1nccn1C)c1ccc(C)cc1Cl` [Compound 1-116, (2S,3R)-3-((2-aminopyridin-4-yl)methyl)-N2-(1-methyl-1H-imidazol-2-yl)-N1-((R)-1-(2-chloro-4-methylphenyl)propyl)-N2-methyl-4-oxoazetidine-1,2-dicarboxamide], < 0.01 µM.
